The record followed here is patent US9315490B2, “2,5-substituted pyrimidines” (Grünenthal GmbH, priority 2014, dated 2016).

Broadly, the inhibition is the change of the read-out against control, counted positive when it falls.

The target in this assay is T1, human PDE4B1 (Homo sapiens, UniProt Q07343).
T1 construct: host or cells: Sf9 cells
In words: TR-FRET assay using the LANCE Ultra cAMP kit to determine the activity of hPDE4B1. In kind it is biochemical. To be noted: read-out: Inhibition in % (inhibition of PDE4B); for inhibition at 10 µM: test concentration 10 μM (marked in cell); for inhibition at 1 µM: test concentration 1 μM. An excerpt: TR-FRET Assay Using the LANCE® Ultra cAMP Kit to Determine the Activity of hPDE4B1
The effects of the compounds on the activity of the human PDE4B1 was quantified by measuring the production of 5′AMP from cAMP using a human recombinant enzyme expressed in Sf9 cells and the LANCE® Ultra cAMP kit, a TR-FRET detection method from PerkinElmer. The human PDE4B1 enzyme was purchased from SignalChem Lifesciences (Catalog# P92-31BG, Lot# H296-2).
The test compound, reference compound or water (control) was mixed with the enzyme (0.96 U) in a reaction buffer containing 50 mM Tris-HCl, 50 mM MgCl2 and 5 mM DTT (pH 8.5). Thereafter, the reaction was initiated by addition of 500 nM cAMP (substrate) and the mixture was incubated for 30 minutes at room temperature. For control basal measurements, the enzyme was omitted from the reaction mixture. After 30 minutes, the reaction was stopped and diluted by a factor of 100 with the reaction buffer supplemented with 500 μM IBMX. The fluorescence donor (europium chelate-labeled cAMP) and the fluorescence acceptor (anti-cAMP antibody labeled with the ULight™ dye) were then added together with 500 μM IBMX to a 10 μl aliquot. After 60 minutes, the fluorescence transfer corresponding to the amount of residual cAMP was measured at λex=337 nm, λem=620 nm and λem=665 nm using a microplate reader (PHERAstar, BMG). The enzyme activity was determined by dividing the signal measured at 665 nm by that measured at 620 nm (ratio) multiplied by 10000. The results were expressed as percent inhibition of the control enzyme activity. IC50 values (IC50=concentration causing a half-maximal inhibition of control specific activity) were derived from dose response measurements with ten different concentrations (n=3; N=1-3).
A general note: In TR-FRET formats the signal depends on donor and acceptor labels being close together.

T1 sequence (Q07343 whole entry): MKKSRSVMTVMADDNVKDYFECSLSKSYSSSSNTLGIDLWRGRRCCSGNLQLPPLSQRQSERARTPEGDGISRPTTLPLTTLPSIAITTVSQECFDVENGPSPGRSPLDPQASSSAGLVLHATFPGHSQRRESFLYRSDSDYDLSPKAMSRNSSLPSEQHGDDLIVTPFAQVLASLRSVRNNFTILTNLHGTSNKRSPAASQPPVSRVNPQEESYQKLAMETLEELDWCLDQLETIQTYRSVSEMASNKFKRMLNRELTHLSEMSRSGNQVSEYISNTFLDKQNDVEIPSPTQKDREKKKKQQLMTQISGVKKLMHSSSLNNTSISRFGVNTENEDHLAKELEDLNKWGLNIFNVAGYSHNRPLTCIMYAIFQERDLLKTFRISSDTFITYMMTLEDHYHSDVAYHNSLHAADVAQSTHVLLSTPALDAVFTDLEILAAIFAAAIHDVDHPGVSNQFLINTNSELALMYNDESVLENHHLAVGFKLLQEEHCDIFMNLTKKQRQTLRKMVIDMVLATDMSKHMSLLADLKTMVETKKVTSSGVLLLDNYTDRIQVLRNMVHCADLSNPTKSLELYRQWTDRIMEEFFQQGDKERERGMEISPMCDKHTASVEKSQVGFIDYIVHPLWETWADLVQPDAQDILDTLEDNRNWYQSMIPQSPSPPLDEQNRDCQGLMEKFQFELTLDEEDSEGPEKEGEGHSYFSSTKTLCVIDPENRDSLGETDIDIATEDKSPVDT

As to `C[S+]([O-])c1cn(-c2ncc(-c3ccccc3F)cn2)c2cc(C(=O)N3C[C@@H]4C[C@H]3CO4)ccc12` (stereo partly drawn) [Example 308, (1S,4S)-2-Oxa-5-azabicyclo[2.2.1]heptan-5-yl(1-(5-(2-fluorophenyl)pyrimidin-2-yl)-3-(methylsulfinyl)-1H-indol-6-yl)methanone], the inhibition at 10 µM was 101%.
The same measure, in the same setting: in the case of `C[S+]([O-])c1cn(-c2ncc(-c3ccccc3F)cn2)c2cc(C(=O)N3CC[C@H](CO)C3)ccc12` (stereo partly drawn) [Example 303, (1-(5-(2-Fluorophenyl)pyrimidin-2-yl)-3-(methylsulfinyl)-1H-indol-6-yl)((S)-3-(hydroxymethyl)pyrrolidin-1-yl)methanone] it was 99%.
With `C[S+]([O-])c1cn(-c2ncc(-c3cc(C(C)(C)O)ccn3)cn2)c2cc(C(=O)N3CCOCC3)ccc12` (stereo not drawn) [Example 289, (1-(5-(4-(2-Hydroxypropan-2-yl)pyridin-2-yl)pyrimidin-2-yl)-3-(methylsulfinyl)-1H-indol-6-yl)(morpholino)methanone], the inhibition at 1 µM amounted to 93%.
Turning to `CN(CC(N)=O)C(=O)c1ccc2c([S+](C)[O-])cn(-c3ncc(-c4cc(C5CC5)ccn4)cn3)c2c1` (single isomer, unassigned) [Example 333, N-(2-Amino-2-oxoethyl)-1-(5-(4-cyclopropylpyridin-2-yl)pyrimidin-2-yl)-N-methyl-3-(methylsulfinyl)-1H-indole-6-carboxamide], the inhibition at 10 µM was 87%.
The same measure, in the same setting: in the case of `CN(CC(N)=O)C(=O)c1ccc2c([S+](C)[O-])cn(-c3ncc(-c4cc(N)ccn4)cn3)c2c1` (stereo not drawn) [Example 286, N-(2-Amino-2-oxoethyl)-1-(5-(4-aminopyridin-2-yl)pyrimidin-2-yl)-N-methyl-3-(methylsulfinyl)-1H-indole-6-carboxamide] it was 101%; in that of `Cc1ccc(F)c(-c2cnc(-n3cc(C(C)O)c4ccc(C(=O)N(C)CC(N)=O)cc43)nc2)c1` (stereo not drawn) [Example 323, N-(2-Amino-2-oxoethyl)-1-(5-(2-fluoro-5-methylphenyl)pyrimidin-2-yl)-3-(1-hydroxyethyl)-N-methyl-1H-indole-6-carboxamide], 103%.
With `CN(C)c1ccnc(-c2cnc(-n3cc([S+](C)[O-])c4ccc(C(=O)N5C[C@@H]6C[C@H]5CN6)cc43)nc2)c1` (stereo partly drawn) [Example 248, (1S,4S)-2,5-Diazabicyclo[2.2.1]heptan-2-yl(1-(5-(4-(dimethylamino)pyridin-2-yl)pyrimidin-2-yl)-3-(methylsulfinyl)-1H-indol-6-yl)methanone], the inhibition at 1 µM is 97%.
`CCN(C)C(=O)c1ccc2c([S+](C)[O-])cn(-c3ncc(-c4cc(C)ccn4)cn3)c2c1` (stereo not drawn) [Example 271, N-Ethyl-N-methyl-1-(5-(4-methylpyridin-2-yl)pyrimidin-2-yl)-3-(methylsulfinyl)-1H-indole-6-carboxamide]: the inhibition at 1 µM stood at 97%.
On the same count and under the same terms, the figure for `CCc1ccnc(-c2cnc(-n3cc([S+](C)[O-])c4ccc(C(=O)N5CCOCC5)cc43)nc2)c1` (stereo not drawn) [Example 259] is 95%.
On the same count and under the same terms, in the case of `C[S+]([O-])c1cn(-c2ncc(-c3cc(Cl)ccn3)cn2)c2cc(C(=O)N3CCOCC3)ccc12` (stereo not drawn) [Example 299, (1-(5-(4-Chloropyridin-2-yl)pyrimidin-2-yl)-3-(methylsulfinyl)-1H-indol-6-yl)(morpholino)methanone] it was 94%.
On the same count and under the same terms, in the case of `CCc1ccnc(-c2cnc(-n3cc([S+](C)[O-])c4ccc(C(=O)N5C[C@@H]6C[C@H]5CN6)cc43)nc2)c1` (stereo partly drawn) [Example 246, (1S,4S)-2,5-Diazabicyclo[2.2.1]heptan-2-yl(1-(5-(4-ethylpyridin-2-yl)pyrimidin-2-yl)-3-(methylsulfinyl)-1H-indol-6-yl)methanone] it was 96%.
Regarding `Cc1ccnc(-c2cnc(-n3cc([S+](C)[O-])c4ccc(C(=O)N5C[C@@H]6C[C@H]5CN6)cc43)nc2)c1` (stereo partly drawn) [Example 245, (1S,4S)-2,5-Diazabicyclo[2.2.1]heptan-2-yl(1-(5-(4-methylpyridin-2-yl)pyrimidin-2-yl)-3-(methylsulfinyl)-1H-indol-6-yl)methanone], the inhibition at 1 µM was found to be 86%.
